Measurements as given in PubChem BioAssay AID328 (DTP/NCI, 2004).
Several values for one entry are separate records, joined by “and”; a condition that tells them apart may be missing. Identical values can stand only once. Inconclusive results and toxic doses are left out. How the source made its calls: active means survival T/C of 150% or more; inactive means T/C below 125% in these data.

Tested on: BDF1 mice, P388 leukemia ip, median survival T/C
Assay: NCI In Vivo Anticancer Drug Screen. Data for tumor model P388 Leukemia (intraperitoneal) in B6D2F1 (BDF1) mice
Conditions: endpoint: median survival time, higher = longer survival
Procedure, shortened: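 Reported as T/C, where T is the survival measurement in dosed animals and C the same measurement in vehicle controls.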

[1] = dose: 12.5 mg/kg/injection, schedule: Q01DX009 (ip), vehicle: saline with Tween-80
[2] = dose: 25.0 mg/kg/injection, schedule: Q01DX009 (ip), vehicle: saline with Tween-80
[3] = dose: 50.0 mg/kg/injection, schedule: Q01DX009 (ip), vehicle: saline with Tween-80
[4] = dose: 100.0 mg/kg/injection, schedule: Q01DX009 (ip), vehicle: saline with Tween-80
[5] = dose: 100.0 mg/kg/injection, schedule: Q01DX009 (ip), vehicle: other
[6] = dose: 400.0 mg/kg/injection, schedule: Q01DX009 (ip), vehicle: other
[7] = dose: 25.0 mg/kg/injection, schedule: Q01DX009 (ip), vehicle: Klucel (hydroxypropylcellulose) (HPC)
[8] = dose: 200.0 mg/kg/injection, schedule: Q01DX009 (ip), vehicle: saline with Tween-80
[9] = dose: 100.0 mg/kg/injection, schedule: Q04DX003 (ip), vehicle: saline with Tween-80
[10] = dose: 200.0 mg/kg/injection, schedule: Q04DX003 (ip), vehicle: saline with Tween-80
[11] = dose: 400.0 mg/kg/injection, schedule: Q04DX003 (ip), vehicle: saline with Tween-80
[12] = dose: 100.0 mg/kg/injection, schedule: Q04DX003 (ip), vehicle: Klucel (hydroxypropylcellulose) (HPC)
[13] = dose: 200.0 mg/kg/injection, schedule: Q04DX003 (ip), vehicle: Klucel (hydroxypropylcellulose) (HPC)
[14] = dose: 400.0 mg/kg/injection, schedule: Q04DX003 (ip), vehicle: Klucel (hydroxypropylcellulose) (HPC)

Measured: T/C

COC(=O)C12OCC34C(CC5=C(C)C(=O)C(O)=CC5(C)C3C(O)C1O)OC(=O)C(OC(=O)/C=C(\C)C(C)C)C24 (configuration not stated)
inactive: dose: 31.0 micrograms/kg/injection, schedule: Q01DX009 (ip), vehicle: saline + alcohol 120 % of control | dose: 62.0 micrograms/kg/injection, schedule: Q01DX009 (ip), vehicle: saline + alcohol 115 % of control | dose: 250.0 micrograms/kg/injection, schedule: Q01DX009 (ip), vehicle: saline + alcohol 100 % of control | dose: 500.0 micrograms/kg/injection, schedule: Q01DX009 (ip), vehicle: saline + alcohol 105 % of control | dose: 1000.0 micrograms/kg/injection, schedule: Q01DX009 (ip), vehicle: saline + alcohol 120 % of control | dose: 2000.0 micrograms/kg/injection, schedule: Q01DX009 (ip), vehicle: saline + alcohol 110 % of control

COc1ccc(C2=NC(c3ccccc3)NC(c3ccccc3)/C2=C/c2ccccc2)cc1 (configuration not stated)
inactive: dose: 6.25 mg/kg/injection, schedule: Q01DX009 (ip), vehicle: saline with Tween-80 106 % of control | [1] 99 % of control | [2] 99 % of control | [3] 91 % of control and 94 % of control | [4] 95 % of control

COC(=O)[C@H]1[C@H]2C[C@@H]3c4[nH]c5cc(OC)ccc5c4CCN3C[C@H]2C[C@@H](OC(=O)c2cc(OC)c(OC)c(OC)c2)[C@@H]1OC
inactive: dose: 0.37 mg/kg/injection, schedule: Q01DX009 (ip), vehicle: saline with Tween-80 95 % of control

CCCCCCC(C)[N+](C)(C)C (configuration not stated)
inactive: dose: 6.25 mg/kg/injection, schedule: Q04DX003 (ip), vehicle: saline 116 % of control | dose: 12.5 mg/kg/injection, schedule: Q04DX003 (ip), vehicle: saline 100 % of control | dose: 25.0 mg/kg/injection, schedule: Q04DX003 (ip), vehicle: saline 113 % of control

CCCCCCC/C=N/N=C/CCCCCCC
inactive: [5] 100 % of control | dose: 100.0 mg/kg/injection, schedule: Q04DX003 (ip), vehicle: other 109 % of control | dose: 178.0 mg/kg/injection, schedule: Q01DX009 (ip), vehicle: other 122 % of control | dose: 200.0 mg/kg/injection, schedule: Q04DX003 (ip), vehicle: other 109 % of control | [6] 104 % of control

Nc1cc2nnc(-c3ccccc3)c(-c3ccccc3)n2n1
inactive: dose: 100.0 mg/kg/injection, schedule: Q04DX002 (ip), vehicle: saline with Tween-80 89 % of control | dose: 400.0 mg/kg/injection, schedule: Q04DX002 (ip), vehicle: saline with Tween-80 86 % of control

CCOc1nsc(OCC)n1
inactive: dose: 100.0 mg/kg/injection, schedule: Q01DX001 (ip), vehicle: Klucel (hydroxypropylcellulose) (HPC) 86 % of control | dose: 200.0 mg/kg/injection, schedule: Q01DX001 (ip), vehicle: Klucel (hydroxypropylcellulose) (HPC) 104 % of control

Nc1nc(N)c2cc(NCc3ccccc3Cl)ccc2n1
inactive: dose: 2.34 mg/kg/injection, schedule: Q04DX003 (ip), vehicle: Klucel (hydroxypropylcellulose) (HPC) 104 % of control | dose: 4.68 mg/kg/injection, schedule: Q04DX003 (ip), vehicle: Klucel (hydroxypropylcellulose) (HPC) 100 % of control | dose: 6.25 mg/kg/injection, schedule: Q01DX009 (ip), vehicle: Klucel (hydroxypropylcellulose) (HPC) 105 % of control | dose: 9.37 mg/kg/injection, schedule: Q04DX003 (ip), vehicle: Klucel (hydroxypropylcellulose) (HPC) 122 % of control | dose: 12.5 mg/kg/injection, schedule: Q01DX009 (ip), vehicle: Klucel (hydroxypropylcellulose) (HPC) 110 % of control | dose: 18.75 mg/kg/injection, schedule: Q04DX003 (ip), vehicle: Klucel (hydroxypropylcellulose) (HPC) 100 % of control | [7] 100 % of control

COc1cc(C2=CC(OC)(OC)C=C(C(C)(C)C)C2=O)c(O)c(C(C)(C)C)c1
inactive: [3] 105 % of control | [4] 108 % of control | [8] 112 % of control

Cn1c2ccccc2c2c3c(ccc21)C(=O)C=CC3=O
inactive: [9] 113 % of control | [10] 102 % of control | [11] 121 % of control

COCc1ccc([N+](=O)[O-])cc1
inactive: dose: 25.0 mg/kg/injection, schedule: Q01DX001 (ip), vehicle: saline with Tween-80 101 % of control | dose: 50.0 mg/kg/injection, schedule: Q01DX001 (ip), vehicle: saline with Tween-80 95 % of control | dose: 100.0 mg/kg/injection, schedule: Q01DX001 (ip), vehicle: saline with Tween-80 96 % of control and 107 % of control

O=COCC(O)COC=O
inactive: dose: 50.0 mg/kg/injection, schedule: Q04DX003 (ip), vehicle: saline 103 % of control | dose: 100.0 mg/kg/injection, schedule: Q04DX003 (ip), vehicle: saline 112 % of control | dose: 200.0 mg/kg/injection, schedule: Q04DX003 (ip), vehicle: saline 112 % of control

C[CH2][Sn]([c]1ccccc1)([c]1ccccc1)[c]1ccccc1
inactive: [1] 104 % of control | [2] 109 % of control | [3] 104 % of control

O=c1[nH]c(Cl)nc2c(Cl)c(C(Cl)(Cl)Cl)nn12
inactive: [2] 104 % of control | dose: 25.0 mg/kg/injection, schedule: Q04DX003 (ip), vehicle: saline with Tween-80 113 % of control | [3] 109 % of control | dose: 50.0 mg/kg/injection, schedule: Q04DX003 (ip), vehicle: saline with Tween-80 120 % of control | [4] 106 % of control | [9] 93 % of control and 104 % of control | [8] 109 % of control | dose: 400.0 mg/kg/injection, schedule: Q01DX009 (ip), vehicle: saline with Tween-80 104 % of control | [11] 86 % of control

CCOC(=O)C(C)(C)CN(CC(C)(C)C(=O)OCC)c1ccccc1
inactive: [9] 115 % of control | [10] 115 % of control | [11] 120 % of control

COc1cccc2c1CCC1C2CC=C2CC3(CCC21C)OCCO3 (configuration not stated)
inactive: dose: 50.0 mg/kg/injection, schedule: Q04DX003 (sc), vehicle: steriod suspending solution 100 % of control | dose: 100.0 mg/kg/injection, schedule: Q04DX003 (sc), vehicle: steriod suspending solution 104 % of control | dose: 200.0 mg/kg/injection, schedule: Q04DX003 (sc), vehicle: steriod suspending solution 91 % of control | dose: 400.0 mg/kg/injection, schedule: Q04DX003 (sc), vehicle: steriod suspending solution 100 % of control

CC(CC(=O)O)(CC(=O)O)c1ccccc1
inactive: dose: 100.0 mg/kg/injection, schedule: Q01DX009 (ip), vehicle: Klucel (hydroxypropylcellulose) (HPC) 100 % of control | [12] 104 % of control | dose: 200.0 mg/kg/injection, schedule: Q01DX009 (ip), vehicle: Klucel (hydroxypropylcellulose) (HPC) 95 % of control | [13] 95 % of control | dose: 400.0 mg/kg/injection, schedule: Q01DX009 (ip), vehicle: Klucel (hydroxypropylcellulose) (HPC) 100 % of control | [14] 90 % of control

CCC[CH2][Sn]([CH2]CCC)[CH2]CCC.CCC[CH2][Sn]([CH2]CCC)[CH2]CCC
inactive: dose: 3.75 mg/kg/injection, schedule: Q01DX009 (ip), vehicle: saline with Tween-80 110 % of control | dose: 7.5 mg/kg/injection, schedule: Q01DX009 (ip), vehicle: saline with Tween-80 92 % of control | dose: 13.0 mg/kg/injection, schedule: Q04DX003 (ip), vehicle: saline with Tween-80 112 % of control | dose: 15.0 mg/kg/injection, schedule: Q01DX009 (ip), vehicle: saline with Tween-80 114 % of control | dose: 20.0 mg/kg/injection, schedule: Q04DX003 (ip), vehicle: saline with Tween-80 100 % of control | [7] 95 % of control | dose: 30.0 mg/kg/injection, schedule: Q04DX003 (ip), vehicle: saline with Tween-80 108 % of control

Cc1ccc(Sc2ccccc2C(C)(C)O)cc1
inactive: [3] 101 % of control | [4] 101 % of control | [8] 95 % of control

O=CCSC(=S)NNc1ccccc1
inactive: dose: 75.0 mg/kg/injection, schedule: Q01DX001 (ip), vehicle: Klucel (hydroxypropylcellulose) (HPC) 110 % of control | dose: 150.0 mg/kg/injection, schedule: Q01DX001 (ip), vehicle: Klucel (hydroxypropylcellulose) (HPC) 105 % of control | dose: 300.0 mg/kg/injection, schedule: Q01DX001 (ip), vehicle: Klucel (hydroxypropylcellulose) (HPC) 95 % of control

COc1ccc(C(C(N)=O)N2CCCCC2)cc1 (configuration not stated)
inactive: [5] 115 % of control | [12] 100 % of control | dose: 200.0 mg/kg/injection, schedule: Q01DX009 (ip), vehicle: other 105 % of control | [13] 90 % of control | [6] 100 % of control | [14] 104 % of control
